# Experimental data: article PMC6115449, “Rapid and simple detection of Tamiflu-resistant influenza virus: Development of oseltamivir derivative-based lateral flow biosensor for point-of-care (POC) diagnostics” (Scientific Reports, 2018)
# What was measured:
# [1] = target: WT NA (neuraminidase of pandemic H1N1 virus A/California/07/2009) (Influenza A virus (A/California/07/2009(H1N1)), UniProt C3W6G3); assay: fluorescence NA inhibition assay (NA-Fluor, MUNANA); format: biochemical; details: MUNANA substrate; 30 min preincubation, 60 min reaction, 37 °C; whole virus 10^6 PFU/mL; ethyl ester prodrug tested as such
# [2] = target: WT NA (neuraminidase of pandemic H1N1 virus A/California/07/2009) (Influenza A virus (A/California/07/2009(H1N1)), UniProt C3W6G3); assay: fluorescence NA activity assay (ex […] nm, em […] nm); format: biochemical; details: 37 °C, 60 min; whole virus
Compound,relative NA activity [1],"fluorescence NA activity assay (ex 360 nm, em 450 nm) [2]"
"CCOC(=O)C1=C[C@@H](OC(CC)CC)[C@H](NC(C)=O)[C@@H](N)C1 [compound 3, oseltamivir phosphate]",increase in oseltamivir phosphate concentration was accompanied by its binding to WT NA and inhibition,
CC(=O)N[C@H]1[C@H]([C@H](O)[C@H](O)CO)O[C@@](Oc2ccc3c(C)cc(=O)oc3c2)(C(=O)O)C[C@@H]1O [2-(4-methylumbelliferyl)-a-D-N-acetylneuraminic acid],,(MUNANA) was used as the fluorescent substrate to determine the NA enzymatic parameters
